The text below walks through data of US4620871A (priority 1980, dated 1986).

Assay [1] concerns Soybean. As to the kind of experiment: Stimulation of photosynthesis, 14CO2 incorporation, soybean leaf discs (Example 20). The conditions noted are these: Glycine max, foliar, 2 hours. As to the method:
The compositions according to the invention were diluted with distilled water to an active agent content of 200 ppm, and leaf discs of alfalfa, soybean, bean and maize, weighing 200 mg each, were floated on the surfaces of the resulting solutions for 2 hours. Thereafter the treated leaf discs were place into the assimilation chamber of an appropriate measuring apparatus, and a known amount of radioactive carbon dioxide gas (^14 CO2) was introduced into the assimilation chamber from a reservoir by means of a gas feeder for 0.5 hours under carefully controlled illumination conditions. Thereafter the leaf discs were frozen with liquid nitrogen, triturated with 50% by weight perchloric acid in a potter homogenizer, and stock solutions were prepared from the resulting mixtures. The specific radioactivities of the stock solutions were determined by liquid scintillation.
(§1) In the control test untreated leaf discs were exposed to labelled carbon, dioxide, and the amount of carbon dioxide incorporated under such conditions was regarded as standard.

For another assay, the system named is maize for silage. The assay can be described thus: Maize for silage field tests 1979, Boly (Example 28). The assay is classed as in vivo. An excerpt:
The effects of the cytokinin-like regulators on the crop yield, crude protein content and real protein content of maize for silage, observed under field conditions in the tests performed in 1979 at the Agricultural Combinate of Boly, Hungary, are listed in Table 20.

Assay [2] relates to Soybean. The assay can be described thus: Inhibition of the decomposition of chlorophyll in soybean leaf segments. The settings on record: 4 days dark. As to the method: (§2) The active agent to be tested was dissolved in distilled water to form a 200 ppm solution, and leaf segments of the plants under examination, weighing 200 mg, were floated on the surface of the solution for 4 days in the dark. Thereafter chlorphyll was extracted from the leaf segments with methanol.
(§3) To determine the starting state, chlorophyll was extracted with methanol from untreated leaf segments weighing 200 mg. In the control test the leaf segments, weighing 200 mg, were floated on the surface of distilled water for 4 days in the dark, and then chlorophyll was extracted from the leaf segments with methanol.
(§4) The chlorophyll concentration was determined by measuring the extinction of the extracts at 665 mμ.

Assay [3] concerns Alfalfa. As to the kind of experiment: Alfalfa field tests 1979, Boly (Example 26). The assay is classed as in vivo. From the text:
The effects of the compositions according to the invention exerted on the crop yield (green yield), crude protein content, protein nitrogen content and C/N ratio of alfalfa, observed under field conditions in the tests performed in 1979 at the Agricultural Combinate of Boly, Hungary, are listed in Table 17.

The test system of assay [4] is Soybean. As to the kind of experiment: Total and protein nitrogen content of soybean (Example 39). The assay is classed as in vivo. An excerpt:
The effects of 1,4-dihydroxyphthalazine and salts thereof exerted on the total nitrogen content and protein nitrogen content of soybean were examined as described in Example 27. The plants were sprayed with the compositions according to the invention at the beginning of the flowering of the apical cluster.

In a further assay the test system is Tobacco callus. As to the kind of experiment: Growth of tobacco callus vs kinetin (Example 14). The conditions noted are these: 2 ppm active agent. The assay is classed as cell-based. The protocol: An untreated culture medium served as control. Tobacco callus was grown on the treated and untreated culture media (incubation period: 3 weeks), and the daily growth, the increase in cell number and the frequency of mitosis were measured according to the method of Skoog.
The test described in Example 13 was repeated so that a culture medium containing 1 ppm of kinetin was used as control, and the compositions according to the invention were applied in amounts corresponding to 2 ppm of active agent.

The subject of assay [5] is Bean. As to the kind of experiment: Inhibition of the decomposition of chlorophyll in bean leaf segments. The conditions noted are these: 4 days dark. As to the method: as §2, §3, §4
For assay [6], the system named is Maize. As to the kind of experiment: Stimulation of photosynthesis, 14CO2 incorporation, maize leaf discs (Example 20). The settings on record: Zea mays, foliar, 2 hours. As to the method:
The specific radioactivities of the stock solutions were determined by liquid scintillation.
as §1

In assay [7] the test system is Bean. As to the kind of experiment: Stimulation of photosynthesis, 14CO2 incorporation, bean leaf discs (Example 20). The conditions noted are these: foliar, 2 hours. As to the method:
The specific radioactivities of the stock solutions were determined by liquid scintillation. In the control test untreated leaf discs were exposed to labelled carbon, dioxide, and the amount of carbon dioxide incorporated under such conditions was regarded as standard.

For a further assay, the system named is Barley. The assay can be described thus: Inhibition of the decomposition of chlorophyll in barley leaf segments. The conditions noted are these: 4 days dark. As to the method: as §2, §3, §4
Assay [8] deals with Alfalfa. The assay can be described thus: Inhibition of the decomposition of chlorophyll in alfalfa. The settings on record: 200 ppm, 100 mg green plant, control 0.78. As to the method:
(§5) Thereafter chlorphyll was extracted from the leaf segments with methanol. To determine the starting state, chlorophyll was extracted with methanol from untreated leaf segments weighing 200 mg. In the control test the leaf segments, weighing 200 mg, were floated on the surface of distilled water for 4 days in the dark, and then chlorophyll was extracted from the leaf segments with methanol. […] For alfalfa and maize the chlorphyll contents of 100 mg of green plant were examined.

The test system of another assay is maize leaves. The assay can be described thus: Fixation of 14CO2 in maize leaves (Example 36). The conditions noted are these: 18 hours. The protocol:
(§6) The biological activities of cytokinin-like factors can be well characterized by measuring the intensity of the photosynthetic carbon dioxide fixation and the incorporation of labelled amino acids into the TCA-insoluble protein fraction. The intensity of photosynthetic carbon dioxide fixation was determined on maize leaves, utilizing ^14 CO2, whereas the incorporation of amino acids was examined on bean leaves, utilizing […]-^14 C.

The subject of another assay is bean leaves. As to the kind of experiment: Incorporation of Gly-2-14C in bean leaves (Example 36). The conditions noted are these: 18 hours. The protocol: as §6
Assay [9] concerns Maize. The assay can be described thus: Inhibition of the decomposition of chlorophyll in maize. The settings on record: 200 ppm, 100 mg green plant, control 0.65. The protocol: as §5

In the case of `N=C(N)N.N=C(N)N.Oc1nnc(O)c2ccccc12` [1,4-dihydroxyphthalazine diguanidine salt], the activation at 200 ppm in the assay on Soybean [1] stood at 67%; in the assay on Soybean [2] (Glycine max, foliar, 96 h, read-out: Promotion), 54%; in the assay with Bean [5] (foliar, 96 h, read-out: Promotion) it was 54%; in the assay on Maize [6], 12%; in the assay with Bean [7] it was 4%; in the assay on Barley (Hordeum vulgare, foliar, 96 h, read-out: Promotion) it was 162%. For the same molecule, the results for the P2O5 content with maize for silage (control 7.5) and with Alfalfa [3] (control 8.3) were 9.5 % of dry substance and 10.3 % of dry substance, respectively. In addition, the Crude protein content with maize for silage (control 13.2) is reported as 16.0 % of dry substance; in the assay with Alfalfa [3] (control 21.3) it was 25.4 % of dry substance. This molecule registered a Green weight with maize for silage (control 310.2) of 361.3 q/ha. In addition, the results for the “Crude protein content, increase” value in the assay with maize for silage (in vivo) and in the assay with Alfalfa [3] (in vivo) were 21.3% and 19.4%, respectively. Further, in the assay with maize for silage (in vivo), the “Green weight, increase” value is on record as 15.5%. In addition, the “P2O5 content, increase” value in the assay on maize for silage (in vivo) is given as 27.2%; in the assay on Alfalfa [3] (in vivo), 24.6%. In addition, the Chlorophyll is recorded as 5.4 mg in the assay on Soybean [2] (200 ppm, control 3.5); 6.5 mg in the assay with Bean [5] (200 ppm, control 4.2); 9.7 mg in the assay on Barley (200 ppm, control 3.7). In the assay on Alfalfa [3] (control 120), this molecule yielded a Green yield of 146 q/ha. In the assay with Alfalfa [3] (in vivo), the “Green yield, increase” value stood at 22.3%. Besides, in the assay with Soybean [4] (control 1.9), the Protein nitrogen content is on record as 3.9 % of dry substance. Moreover, the Total nitrogen content in the assay with Soybean [4] (control 2.6) is given as 4.7 % of dry substance. For the same molecule, the “Protein nitrogen content, increase” value with Soybean [4] (in vivo) was 105.3%. For the same molecule, in the assay with Soybean [4] (in vivo), the “Total nitrogen content, increase” value was determined as 81.0%. In addition, in the assay on Tobacco callus (kinetin 1 ppm), the “Dry weight of the callus” value came out at 170.92 mg. The molecule further yielded a Speed of growth with Tobacco callus (kinetin 1 ppm) of 98.23. Further, the activity at 2 ppm with Tobacco callus (Nicotiana tabacum, 504 h, kinetin 1 ppm = 100, read-out: Speed of growth, Index %) came to 98.2%.

For `CCC[n+]1c[nH]c2ccccc21.[Br-]` [N--(n-Propyl)-benzimidazolium bromide, N-(n-propyl)-benzimidazolium bromide], the results for the Chlorophyll content in the assay with Alfalfa [8] and in the assay with Maize [9] were 0.96 mg and 0.82 mg, respectively. In addition, the “Fixation of 14CO2” value in the assay with maize leaves (fresh weight, control 5.72) worked out at 10.52 μCi/g. The “Fixation of 14CO2, %” value with maize leaves (increase over control) is on record as 84%. The “Incorporation of Gly-2-14C” value in the assay with bean leaves (fresh weight, control 3.52) is on record as 4.96 μCi/g. Further, in the assay with bean leaves (increase over control), the “Incorporation of Gly-2-14C, %” value stood at 41%.
